Source: US20090227575A1, “7H-PYRROLO[2,3-H]QUINAZOLINE COMPOUNDS, THEIR USE AS mTOR KINASE AND PI3 KINASE INHIBITORS, AND THEIR [sequence]” (Wyeth, priority 2008, published 2009)
pIC50: −log10 of the molar value.

Key:
Assay type in all cases: biochemical
PI3K-gamma = PI3K-gamma (Homo sapiens, UniProt P48736); assay: PI3K-gamma fluorescence polarization assay; details: read-out: PI3 Kinase γ IC50
In short: (§1)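 Diluted enzyme and compound (1% DMSO) reacted with diC8 PIP2 and ATP substrate in 20 mM HEPES pH 7.5, 2 mM MgCl2, 0.05% CHAPS for 30–60 min. Stopped with EDTA buffer holding 10 nM TAMRA probe and 70 nM GST-GRP. FP (mP) read after 30–90 min against zero-time and no-enzyme controls.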

human SMG-1 (hSMG-1) = human SMG-1 (hSMG-1) (Homo sapiens, UniProt Q96Q15); assay: hSMG-1 kinase assay (DELFIA); details: read-out: hSMG1 IC50
Chain of human SMG-1 (hSMG-1) (Q96Q15 whole entry): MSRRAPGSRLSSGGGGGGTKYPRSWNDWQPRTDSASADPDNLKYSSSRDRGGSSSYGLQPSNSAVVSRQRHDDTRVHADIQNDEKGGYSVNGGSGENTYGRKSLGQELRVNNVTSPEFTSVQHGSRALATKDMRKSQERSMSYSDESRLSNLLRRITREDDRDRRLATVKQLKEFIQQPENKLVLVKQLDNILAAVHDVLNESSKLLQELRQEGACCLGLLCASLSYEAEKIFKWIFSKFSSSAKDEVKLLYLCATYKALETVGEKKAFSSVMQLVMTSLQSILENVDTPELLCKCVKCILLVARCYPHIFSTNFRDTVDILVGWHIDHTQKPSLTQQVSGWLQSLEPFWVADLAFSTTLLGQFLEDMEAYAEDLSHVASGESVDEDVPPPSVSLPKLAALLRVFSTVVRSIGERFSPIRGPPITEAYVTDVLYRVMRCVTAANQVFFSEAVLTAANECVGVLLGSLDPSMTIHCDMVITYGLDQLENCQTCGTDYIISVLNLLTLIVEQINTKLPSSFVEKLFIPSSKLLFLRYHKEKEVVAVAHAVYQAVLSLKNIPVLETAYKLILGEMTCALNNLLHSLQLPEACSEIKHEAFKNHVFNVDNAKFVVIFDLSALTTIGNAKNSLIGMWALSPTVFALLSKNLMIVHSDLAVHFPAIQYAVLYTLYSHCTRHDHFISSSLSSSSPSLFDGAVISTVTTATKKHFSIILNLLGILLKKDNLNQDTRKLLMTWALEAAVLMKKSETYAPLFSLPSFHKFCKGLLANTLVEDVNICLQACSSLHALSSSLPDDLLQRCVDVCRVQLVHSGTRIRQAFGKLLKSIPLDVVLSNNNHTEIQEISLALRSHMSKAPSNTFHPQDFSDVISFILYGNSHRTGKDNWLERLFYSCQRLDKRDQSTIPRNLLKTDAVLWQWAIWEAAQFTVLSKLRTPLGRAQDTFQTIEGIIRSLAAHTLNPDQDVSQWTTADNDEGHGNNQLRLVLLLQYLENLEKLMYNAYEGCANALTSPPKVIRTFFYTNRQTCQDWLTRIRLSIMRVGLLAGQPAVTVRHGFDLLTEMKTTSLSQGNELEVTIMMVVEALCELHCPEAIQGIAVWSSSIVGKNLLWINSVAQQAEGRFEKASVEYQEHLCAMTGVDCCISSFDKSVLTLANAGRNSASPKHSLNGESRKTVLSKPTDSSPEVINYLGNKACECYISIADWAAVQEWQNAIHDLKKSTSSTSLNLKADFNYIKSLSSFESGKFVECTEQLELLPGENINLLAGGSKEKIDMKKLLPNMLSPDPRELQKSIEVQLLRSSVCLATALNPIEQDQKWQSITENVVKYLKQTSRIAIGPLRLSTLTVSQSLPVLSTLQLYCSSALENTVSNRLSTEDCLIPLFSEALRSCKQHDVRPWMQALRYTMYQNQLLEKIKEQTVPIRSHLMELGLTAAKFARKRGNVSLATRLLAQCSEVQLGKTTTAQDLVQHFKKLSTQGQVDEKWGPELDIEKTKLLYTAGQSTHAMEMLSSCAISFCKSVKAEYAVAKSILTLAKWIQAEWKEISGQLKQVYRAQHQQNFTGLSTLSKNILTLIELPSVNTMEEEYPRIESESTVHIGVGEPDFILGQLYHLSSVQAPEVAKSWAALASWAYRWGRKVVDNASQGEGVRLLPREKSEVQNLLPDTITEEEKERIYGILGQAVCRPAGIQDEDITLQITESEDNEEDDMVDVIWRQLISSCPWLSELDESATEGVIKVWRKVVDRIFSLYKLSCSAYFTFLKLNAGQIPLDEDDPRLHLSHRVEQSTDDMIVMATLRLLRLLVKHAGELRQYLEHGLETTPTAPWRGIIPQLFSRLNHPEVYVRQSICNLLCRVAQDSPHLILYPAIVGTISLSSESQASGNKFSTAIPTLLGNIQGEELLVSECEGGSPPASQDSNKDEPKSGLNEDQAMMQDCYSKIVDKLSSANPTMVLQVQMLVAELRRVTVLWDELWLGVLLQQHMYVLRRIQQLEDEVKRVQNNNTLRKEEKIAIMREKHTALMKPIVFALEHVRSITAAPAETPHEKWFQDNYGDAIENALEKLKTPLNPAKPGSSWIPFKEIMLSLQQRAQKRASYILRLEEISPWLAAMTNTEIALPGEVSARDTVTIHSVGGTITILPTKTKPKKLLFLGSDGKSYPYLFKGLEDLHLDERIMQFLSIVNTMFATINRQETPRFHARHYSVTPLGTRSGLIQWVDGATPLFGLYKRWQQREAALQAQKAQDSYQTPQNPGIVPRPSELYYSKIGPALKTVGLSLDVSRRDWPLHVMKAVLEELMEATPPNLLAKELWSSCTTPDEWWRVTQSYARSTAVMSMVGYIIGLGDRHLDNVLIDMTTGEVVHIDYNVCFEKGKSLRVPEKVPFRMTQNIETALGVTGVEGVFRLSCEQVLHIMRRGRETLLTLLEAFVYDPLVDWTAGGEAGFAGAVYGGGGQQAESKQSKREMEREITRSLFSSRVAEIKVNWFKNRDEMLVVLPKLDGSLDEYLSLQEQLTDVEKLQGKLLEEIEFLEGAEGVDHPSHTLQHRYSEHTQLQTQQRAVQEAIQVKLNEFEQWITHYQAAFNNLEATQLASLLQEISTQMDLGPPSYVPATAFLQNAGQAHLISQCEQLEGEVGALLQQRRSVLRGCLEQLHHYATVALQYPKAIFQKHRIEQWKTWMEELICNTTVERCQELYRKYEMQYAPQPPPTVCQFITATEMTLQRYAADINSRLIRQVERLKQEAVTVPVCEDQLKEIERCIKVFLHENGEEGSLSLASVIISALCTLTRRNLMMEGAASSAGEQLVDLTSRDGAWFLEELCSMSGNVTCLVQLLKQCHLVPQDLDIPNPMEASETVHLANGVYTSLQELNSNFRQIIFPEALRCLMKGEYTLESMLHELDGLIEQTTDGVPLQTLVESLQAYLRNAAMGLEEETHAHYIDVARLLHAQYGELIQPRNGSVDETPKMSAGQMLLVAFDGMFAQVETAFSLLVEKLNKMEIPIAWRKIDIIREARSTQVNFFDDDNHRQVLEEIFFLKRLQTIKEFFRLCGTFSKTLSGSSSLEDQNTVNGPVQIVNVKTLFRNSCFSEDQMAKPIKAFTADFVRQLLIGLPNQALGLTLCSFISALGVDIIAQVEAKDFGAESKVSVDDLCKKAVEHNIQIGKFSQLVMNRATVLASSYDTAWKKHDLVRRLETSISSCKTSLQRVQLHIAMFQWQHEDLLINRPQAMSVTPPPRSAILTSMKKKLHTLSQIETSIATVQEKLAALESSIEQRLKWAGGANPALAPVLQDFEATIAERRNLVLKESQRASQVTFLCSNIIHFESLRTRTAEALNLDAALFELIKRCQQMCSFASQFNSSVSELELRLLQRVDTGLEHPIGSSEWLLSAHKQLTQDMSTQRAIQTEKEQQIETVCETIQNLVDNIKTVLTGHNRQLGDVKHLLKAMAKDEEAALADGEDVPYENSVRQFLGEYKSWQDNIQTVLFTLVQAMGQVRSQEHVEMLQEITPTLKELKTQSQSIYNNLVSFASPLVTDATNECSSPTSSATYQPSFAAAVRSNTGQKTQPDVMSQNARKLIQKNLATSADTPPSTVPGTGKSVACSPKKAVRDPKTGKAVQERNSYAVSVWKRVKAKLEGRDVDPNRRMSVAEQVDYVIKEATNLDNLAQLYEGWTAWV

PI3K-alpha = PI3K-alpha (Homo sapiens, UniProt P42336); assay: PI3K-alpha fluorescence polarization assay; details: read-out: PI3 Kinase α IC50
In short: as §1

Human mTOR = Human mTOR (Homo sapiens, UniProt P42345); assay: mTOR kinase assay (DELFIA format, purified enzyme); parameters: FLAG; details: read-out: TOR Kinase IC50

Chain of PI3K-gamma (P48736 whole entry, species assumed): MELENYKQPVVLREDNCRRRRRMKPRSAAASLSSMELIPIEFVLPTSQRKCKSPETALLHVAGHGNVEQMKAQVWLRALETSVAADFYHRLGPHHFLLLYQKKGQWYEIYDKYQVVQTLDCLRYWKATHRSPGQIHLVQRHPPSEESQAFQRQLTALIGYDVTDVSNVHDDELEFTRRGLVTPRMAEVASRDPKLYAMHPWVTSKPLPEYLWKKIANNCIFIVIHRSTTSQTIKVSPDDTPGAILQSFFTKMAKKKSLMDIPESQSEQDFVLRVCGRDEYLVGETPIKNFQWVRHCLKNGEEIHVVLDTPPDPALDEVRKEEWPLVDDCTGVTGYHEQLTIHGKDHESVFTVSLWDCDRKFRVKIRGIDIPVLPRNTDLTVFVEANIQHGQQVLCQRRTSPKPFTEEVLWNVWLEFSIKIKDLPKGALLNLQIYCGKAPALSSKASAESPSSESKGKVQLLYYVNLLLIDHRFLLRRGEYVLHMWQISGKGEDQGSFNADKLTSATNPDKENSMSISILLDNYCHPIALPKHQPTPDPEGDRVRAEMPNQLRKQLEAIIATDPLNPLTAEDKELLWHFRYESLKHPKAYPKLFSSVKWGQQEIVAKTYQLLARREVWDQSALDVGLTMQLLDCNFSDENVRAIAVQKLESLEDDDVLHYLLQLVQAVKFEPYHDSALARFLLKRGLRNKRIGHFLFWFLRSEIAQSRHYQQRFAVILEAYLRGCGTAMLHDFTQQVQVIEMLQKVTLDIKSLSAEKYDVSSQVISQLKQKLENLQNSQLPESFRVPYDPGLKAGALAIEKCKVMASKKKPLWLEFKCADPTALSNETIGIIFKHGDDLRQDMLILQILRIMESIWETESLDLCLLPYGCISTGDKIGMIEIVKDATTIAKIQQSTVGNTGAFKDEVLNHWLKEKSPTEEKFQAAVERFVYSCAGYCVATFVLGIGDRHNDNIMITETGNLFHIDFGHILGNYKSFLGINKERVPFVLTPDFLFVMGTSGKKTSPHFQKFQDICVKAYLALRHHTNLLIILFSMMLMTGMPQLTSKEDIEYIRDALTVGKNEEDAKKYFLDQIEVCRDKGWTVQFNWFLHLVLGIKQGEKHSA

| Structure (SMILES) | pIC50 (PI3K-gamma) | pIC50 (human SMG-1 (hSMG-1)) | pIC50 (PI3K-alpha) | pIC50 (Human mTOR) |
| --- | --- | --- | --- | --- |
| CNC(=O)Nc1ccc(-c2nc(N3CCOCC3)c3ccc4c(ccn4CCN(C)C)c3n2)cc1 [Example 113, 1-(4-{7-[2-(dimethylamino)ethyl]-4-morpholin-4-yl-7H-pyrrolo[2,3-h]quinazolin-2-yl}phenyl)-3-methylurea] | 5.51 | 6.31 | 6.37 | 7.17 |
| CCOC(=O)Nc1cccc(-c2nc(N3CCOCC3)c3ccc4c(ccn4C)c3n2)c1 [Example 124, ethyl [3-(7-methyl-4-morpholin-4-yl-7H-pyrrolo[2,3-h]quinazolin-2-yl)phenyl]carbamate] | – | < 4.70 | – | 5.72 |
| Cn1ccc2c3nc(-c4cccc(NC(=O)C5CC5)c4)nc(N4CCOCC4)c3ccc21 [Example 125, N-[3-(7-methyl-4-morpholin-4-yl-7H-pyrrolo[2,3-h]quinazolin-2-yl)phenyl]cyclopropanecarboxamide] | – | < 4.70 | – | 5.89 |
| CCCC(=O)Nc1cccc(-c2nc(N3CCOCC3)c3ccc4c(ccn4C)c3n2)c1 [Example 126, N-[3-(7-methyl-4-morpholin-4-yl-7H-pyrrolo[2,3-h]quinazolin-2-yl)phenyl]butanamide] | – | < 4.70 | – | 5.72 |
| CCC(=O)Nc1cccc(-c2nc(N3CCOCC3)c3ccc4c(ccn4C)c3n2)c1 [Example 129, N-[3-(7-methyl-4-morpholin-4-yl-7H-pyrrolo[2,3-h]quinazolin-2-yl)phenyl]propanamide] | – | < 4.70 | – | 5.82 |

Further lines, results first:

| pIC50 (PI3K-gamma) | pIC50 (human SMG-1 (hSMG-1)) | pIC50 (PI3K-alpha) | pIC50 (Human mTOR) | Structure (SMILES) |
| --- | --- | --- | --- | --- |
| 6.07 | 6.54 | 6.93 | 7.82 | CN(C)CCn1ccc2c3nc(-c4ccc(NC(=O)Nc5cccnc5)cc4)nc(N4CCOCC4)c3ccc21 [Example 111, 1-(4-{7-[2-(dimethylamino)ethyl]-4-morpholin-4-yl-7H-pyrrolo[2,3-h]quinazolin-2-yl}phenyl)-3-pyridin-3-ylurea] |
| – | 4.82 | – | 6.20 | Cn1ccc2c3nc(-c4ccc(NC(=O)NCCF)cc4)nc(N4CCOCC4)c3ccc21 [Example 118, 1-(2-fluoroethyl)-3-[4-(7-methyl-4-morpholin-4-yl-7H-pyrrolo[2,3-h]quinazolin-2-yl)phenyl]urea] |
| – | 5.19 | – | 5.90 | Cn1ccc2c3nc(-c4ccc(NC(=O)NCC(F)(F)F)cc4)nc(N4CCOCC4)c3ccc21 [Example 119, 1-[4-(7-methyl-4-morpholin-4-yl-7H-pyrrolo[2,3-h]quinazolin-2-yl)phenyl]-3-(2,2,2-trifluoroethyl)urea] |
| – | 5.48 | – | 6.20 | Cn1ccc2c3nc(-c4ccc(NC(=O)NCCc5ccncc5)cc4)nc(N4CCOCC4)c3ccc21 [Example 120, 1-[4-(7-methyl-4-morpholin-4-yl-7H-pyrrolo[2,3-h]quinazolin-2-yl)phenyl]-3-(2-pyridin-4-ylethyl)urea] |
| – | 5.26 | – | 5.59 | Cn1ccc2c3nc(-c4cccc(NC(=O)Nc5cccnc5)c4)nc(N4CCOCC4)c3ccc21 [Example 123, 1-[3-(7-methyl-4-morpholin-4-yl-7H-pyrrolo[2,3-h]quinazolin-2-yl)phenyl]-3-pyridin-3-ylurea] |
| – | 4.81 | – | 5.82 | CCCNC(=O)Nc1cccc(-c2nc(N3CCOCC3)c3ccc4c(ccn4C)c3n2)c1 [Example 127, 1-[3-(7-methyl-4-morpholin-4-yl-7H-pyrrolo[2,3-h]quinazolin-2-yl)phenyl]-3-propylurea] |
| – | < 4.70 | – | 5.74 | CCNC(=O)Nc1cccc(-c2nc(N3CCOCC3)c3ccc4c(ccn4C)c3n2)c1 [Example 128, 1-ethyl-3-[3-(7-methyl-4-morpholin-4-yl-7H-pyrrolo[2,3-h]quinazolin-2-yl)phenyl]urea] |
